From US20110070232A1, “Combination Therapy with an Antitumor Alkaloid” (Pharma Mar, S.A., priority 2008, published 2011)
In brackets after ≈: the same amount, converted by molar mass. Like-named read-outs stand apart in the source and are kept apart here.

How the values were obtained:
Hs746T tumors = format: in vivo, mice; conditions: for % T/C on day 14 / % T/C on day 19 / % T/C on day 22 / % T/C on day 26 / % T/C on day 29 / % T/C on day 32 / % T/C on day 39: PM00104 0.90 IV, DPI 14, 21, 28
Description: Female athymic nude mice (Harlan Sprague Dawley, Madison, Wis.) were utilized for all experiments. Animals were housed in ventilated rack caging with food and water ad libitum. The mice were acclimated for at least 5 days prior to tumor implantation with a tumor cell suspension.
The tumor model used in these studies was Hs746T cell line, which was obtained from the ATCC (Manassas, Va.).
Treatments were initiated on DPI 14.
(§1) Tumor size measurements were recorded twice weekly from the treatment initiation until the termination of the study.
(§2) Mean, standard deviation and standard error of the mean were determined for tumor volume for all animal groups at all assessments. Student's t test was performed on tumor volumes at each measurement day, including at the end of the study, to determine whether there were any statistically significant differences between combination treatment groups and single monotherapy treatment groups.

[1] = test system: AGS human gastric carcinoma cell line; assay: IC50 determination, MTS assay, 72 h (Example 1); format: cell-based; conditions: Homo sapiens, 72 hours of drug exposure, read-out: IC50
Description: (§3) The human gastric carcinoma cell lines selected for this assay were the following: Hs746T, HGC-27, and AGS cell lines. Hs746T and AGS cell lines were grown in Dulbecco's modified Eagle's medium (DMEM) supplemented with 10% Fetal Bovine Serum (FBS), 1.5 g/L sodium bicarbonate, 4.5 g/L glucose and 4 mM L-glutamine. HGC-27 cell line was grown in Iscove's modified Dulbecco's medium (IMDM) supplemented with 20% FBS and 2 mM L-glutamine.
(§4) The day before plating, the cells were fed with fresh, complete growth media. On the harvest (plating) day, cells were counted by Trypan Blue exclusion staining method.
(§5) Cells were harvested and seeded in 96 well microtiter plates at 10,000 cells density in 150 μL of media and incubated for 24 hours to allow the cells to attach before drug addition. To collect reference data, the MTS assay was done on untreated cells at time 0 (after incubation of cells for 24 hours).
(§6) The cytotoxic effect was measured by the MTS Assay (Tetrazolium), which is a colorimetric method for determining the number of viable cells. After the incubation period (24 hours for the Day 0 plate and 72 hours for the Test and Control plates), 25 μL of MTS+PMS solution was added to each microtiter well and incubated for 4 hours at 37° C. Plates were then removed from incubator and placed on plate shaker for 5 minutes (covered with aluminum foil for protection from light). Optical densities were read at 490 nm on spectrophotometer plate reader.
(§7) IC50 values were calculated from an average of two to four assays for each of the test agents.

[2] = test system: Hs746T human gastric carcinoma cell line; assay: IC50 determination, MTS assay, 72 h (Example 1); format: cell-based; conditions: Homo sapiens, 72 hours of drug exposure, read-out: IC50
Description: as §3, §4, §5, §6, §7

[3] = test system: HGC-27 human gastric carcinoma cell line; assay: IC50 determination, MTS assay, 72 h (Example 1); format: cell-based; conditions: Homo sapiens, 72 hours of drug exposure, read-out: IC50
Description: as §3, §4, §5, §6, §7

MRI-H-254 tumors = format: in vivo, mice
Description: Female athymic nude mice (Harlan Sprague Dawley, Madison, Wis.) were utilized for all experiments. Animals were housed in ventilated rack caging with food and water ad libitum. The mice were acclimated for at least 5 days prior to tumor implantation with tumor fragments.
Treatments were initiated on DPI 20.
as §1, §2

[4] = docetaxel 8 IP, oxaliplatin 4 IP mg/kg/day (G4, G6, G8, G10)
[5] = docetaxel 16 IP, oxaliplatin 8 IP mg/kg/day (G2, G3, G5, G7, G9)
[6] = PM00104 0.90 IV, docetaxel 8 IP, oxaliplatin 4 IP mg/kg/day (G4, G6, G8, G10), DPI 20, 27, 34
[7] = PM00104 0.90 IV, docetaxel 16 IP, oxaliplatin 8 IP mg/kg/day (G2, G3, G5, G7, G9), DPI 20, 27, 34

Compound: CC(=O)O[C@@]12CO[C@@H]1C[C@H](O)[C@@]1(C)C(=O)[C@H](O)C3=C(C)[C@@H](OC(=O)[C@H](O)[C@@H](NC(=O)OC(C)(C)C)c4ccccc4)C[C@@](O)([C@@H](OC(=O)c4ccccc4)[C@H]21)C3(C)C [Docetaxel, docetaxel]
- % T/C on day 14 (Hs746T tumors; [4]): 100.8%
- % T/C on day 19 (Hs746T tumors; [4]): 49.0%
- % T/C on day 22 (Hs746T tumors; [4]): 41.6%
- % T/C on day 26 (Hs746T tumors; [4]): 32.5%
- % T/C on day 29 (Hs746T tumors; [4]): 29.4%
- % T/C on day 32 (Hs746T tumors; [4]): 39.4%
- % T/C on day 39 (Hs746T tumors; [4]): 55.1%
- % T/C on day 14 (Hs746T tumors; [5]): 100.3%
- % T/C on day 19 (Hs746T tumors; [5]): 33.6%
- % T/C on day 22 (Hs746T tumors; [5]): 21.3%
- % T/C on day 26 (Hs746T tumors; [5]): 7.2%
- % T/C on day 29 (Hs746T tumors; [5]): 3.5%
- % T/C on day 32 (Hs746T tumors; [5]): 1.5%
- % T/C on day 39 (Hs746T tumors; [5]): −0.6%
- % Inhibition (Hs746T tumors; day 14, PM00104 0.9 and docetaxel 8 mg/kg/day): −0.8%
- % Inhibition (Hs746T tumors; day 14, PM00104 0.9 and docetaxel 16 mg/kg/day): −0.3%
- % Inhibition (Hs746T tumors; day 19, PM00104 0.9 and docetaxel 8 mg/kg/day): 51.0%
- % Inhibition (Hs746T tumors; day 19, PM00104 0.9 and docetaxel 16 mg/kg/day): 66.4%
- % Inhibition (Hs746T tumors; day 22, PM00104 0.9 and docetaxel 8 mg/kg/day): 58.4%
- % Inhibition (Hs746T tumors; day 22, PM00104 0.9 and docetaxel 16 mg/kg/day): 78.7%
- % Inhibition (Hs746T tumors; day 26, PM00104 0.9 and docetaxel 8 mg/kg/day): 67.5%
- % Inhibition (Hs746T tumors; day 26, PM00104 0.9 and docetaxel 16 mg/kg/day): 92.8%
- % Inhibition (Hs746T tumors; day 29, PM00104 0.9 and docetaxel 8 mg/kg/day): 70.6%
- % Inhibition (Hs746T tumors; day 29, PM00104 0.9 and docetaxel 16 mg/kg/day): 96.5%
- % Inhibition (Hs746T tumors; day 32, PM00104 0.9 and docetaxel 8 mg/kg/day): 60.6%
- % Inhibition (Hs746T tumors; day 32, PM00104 0.9 and docetaxel 16 mg/kg/day): 98.5%
- % Inhibition (Hs746T tumors; day 39, PM00104 0.9 and docetaxel 8 mg/kg/day): 44.9%
- % Inhibition (Hs746T tumors; day 39, PM00104 0.9 and docetaxel 16 mg/kg/day): 100.6%
- IC50 [1]: 1.99 µg/mL (≈ 2.46 µM)
- IC50 [2]: 44.2 µg/mL (≈ 54.7 µM)
- IC50 [3]: 6.54 µg/mL (≈ 8.1 µM)
- % T/C on day 20 (MRI-H-254 tumors; [6]): 97.7%
- % T/C on day 23 (MRI-H-254 tumors; [6]): 122.8%
- % T/C on day 27 (MRI-H-254 tumors; [6]): 93.1%
- % T/C on day 30 (MRI-H-254 tumors; [6]): 102.6%
- % T/C on day 33 (MRI-H-254 tumors; [6]): 114.1%
- % T/C on day 36 (MRI-H-254 tumors; [6]): 119.2%
- % T/C on day 40 (MRI-H-254 tumors; [6]): 120.1%
- % T/C on day 48 (MRI-H-254 tumors; [6]): 97.3%
- % T/C on day 20 (MRI-H-254 tumors; [7]): 101.4%
- % T/C on day 23 (MRI-H-254 tumors; [7]): 115.4%
- % T/C on day 27 (MRI-H-254 tumors; [7]): 90.9%
- % T/C on day 33 (MRI-H-254 tumors; [7]): 115.8%
- % T/C on day 36 (MRI-H-254 tumors; [7]): 108.4%
- % T/C on day 40 (MRI-H-254 tumors; [7]): 100.4%
- % T/C on day 48 (MRI-H-254 tumors; [7]): 76.7%
- % Inhibition (MRI-H-254 tumors; day 20, PM00104 0.9 and docetaxel 8 mg/kg/day): 2.3%
- % Inhibition (MRI-H-254 tumors; day 20, PM00104 0.9 and docetaxel 16 mg/kg/day): −1.4%
- % Inhibition (MRI-H-254 tumors; day 23, PM00104 0.9 and docetaxel 8 mg/kg/day): −22.8%
- % Inhibition (MRI-H-254 tumors; day 23, PM00104 0.9 and docetaxel 16 mg/kg/day): −15.4%
- % Inhibition (MRI-H-254 tumors; day 27, PM00104 0.9 and docetaxel 8 mg/kg/day): 6.9%
- % Inhibition (MRI-H-254 tumors; day 27, PM00104 0.9 and docetaxel 16 mg/kg/day): 9.1%
- % Inhibition (MRI-H-254 tumors; day 30, PM00104 0.9 and docetaxel 8 mg/kg/day): −2.6%
- % Inhibition (MRI-H-254 tumors; day 30, PM00104 0.9 and docetaxel 16 mg/kg/day): −17.1%
- % Inhibition (MRI-H-254 tumors; day 33, PM00104 0.9 and docetaxel 8 mg/kg/day): −14.1%
- % Inhibition (MRI-H-254 tumors; day 33, PM00104 0.9 and docetaxel 16 mg/kg/day): −15.8%
- % Inhibition (MRI-H-254 tumors; day 36, PM00104 0.9 and docetaxel 8 mg/kg/day): −19.2%
- % Inhibition (MRI-H-254 tumors; day 36, PM00104 0.9 and docetaxel 16 mg/kg/day): −8.4%
- % Inhibition (MRI-H-254 tumors; day 40, PM00104 0.9 and docetaxel 8 mg/kg/day): −20.1%
- % Inhibition (MRI-H-254 tumors; day 40, PM00104 0.9 and docetaxel 16 mg/kg/day): −0.4%
- % Inhibition (MRI-H-254 tumors; day 48, PM00104 0.9 and docetaxel 8 mg/kg/day): 2.7%
- % Inhibition (MRI-H-254 tumors; day 48, PM00104 0.9 and docetaxel 16 mg/kg/day): 23.3%
